Test results published in patent publication US9924714B2, “Impregnatable matrix of plant, animal or synthetic origin or mixtures of same, containing a uniformly distributed antimicrobial compound, method for impregnating said matrix with a compound, and use thereof in the production of antimicrobial elements” (COMPAÑIA MINERA SAN GERONIMO, priority 2013, dated 2018).

What was measured:
Format in all cases: cell-based
[1] = system: Streptococcus pyogenes ATCC2367; experiment: Disc growth inhibition halo test (Example 2)
[2] = system: Staphylococcus aureus ATCC25923; experiment: Disc growth inhibition halo test (Example 2)
12 bacterial strains = experiment: Antibacterial activity of four copper compounds, summary (Example 2); conditions: discs 200-800 μg, summary in words
[3] = system: Citrobacter freundii ISP1949/99; experiment: Disc growth inhibition halo test (Example 2)
[4] = system: Escherichia coli ATCC25922; experiment: Disc growth inhibition halo test (Example 2)
[5] = system: Enterococcus faecium ISP133/04; experiment: Disc growth inhibition halo test (Example 2)
[6] = system: Pseudomonas aeruginosa PAOI; experiment: Disc growth inhibition halo test (Example 2)
[7] = system: Streptococcus pneumoniae ATCC14325; experiment: Disc growth inhibition halo test (Example 2)
[8] = system: Enterococcus faecalis ATCC29212; experiment: Disc growth inhibition halo test (Example 2)
[9] = system: Enterobacter aerogenes ATCC13048; experiment: Disc growth inhibition halo test (Example 2)
[10] = system: Staphylococcus epidermidis ATCC25923; experiment: Disc growth inhibition halo test (Example 2)
[11] = system: Klebsiella pneumoniae ATCC4352; experiment: Disc growth inhibition halo test (Example 2)
[12] = system: Acinetobacter baumanii UDP456; experiment: Disc growth inhibition halo test (Example 2)

[Cl-].[Cu+2].[Cu+2].[OH-].[OH-].[OH-] [copper oxychloride compound (II), copper oxychloride (II)]
Growth inhibition zone ([1]; 200 μg on 5 mm disc): 5.0 ± 1.0 mm
Growth inhibition zone ([1]; 400 μg on 5 mm disc): 6.0 ± 1.0 mm
Growth inhibition zone ([1]; 600 μg on 5 mm disc): 7.0 ± 1.2 mm
Growth inhibition zone ([1]; 800 μg on 5 mm disc): 8.0 ± 1.4 mm
Growth inhibition zone ([2]; 200 μg on 5 mm disc): 6.0 ± 1.0 mm
Growth inhibition zone ([2]; 400 μg on 5 mm disc): 10.3 ± 0.6 mm
Growth inhibition zone ([2]; 600 μg on 5 mm disc): 11.7 ± 0.6 mm
Growth inhibition zone ([2]; 800 μg on 5 mm disc): 14.0 ± 1.0 mm
antibacterial activity (12 bacterial strains): antibacterial activity against Staphylococcus aureus, Staphylococcus epidermidis, Streptococcus pyogenes, Escherichia coli and Acinetobacter baumannii
Growth inhibition zone ([3]; 200 μg on 5 mm disc): 8.0 ± 1.0 mm
Growth inhibition zone ([3]; 400 μg on 5 mm disc): 10.7 ± 1.5 mm
Growth inhibition zone ([3]; 600 μg on 5 mm disc): 11.3 ± 0.6 mm
Growth inhibition zone ([3]; 800 μg on 5 mm disc): 11.3 ± 1.5 mm
Growth inhibition zone ([4]; 200 μg on 5 mm disc): 13.3 ± 1.4 mm
Growth inhibition zone ([4]; 400 μg on 5 mm disc): 13.0 ± 0.7 mm
Growth inhibition zone ([4]; 600 μg on 5 mm disc): 15.0 ± 0.7 mm
Growth inhibition zone ([4]; 800 μg on 5 mm disc): 13.3 ± 0.7 mm
Growth inhibition zone ([5]; 200 μg on 5 mm disc): 6.0 ± 1.0 mm
Growth inhibition zone ([5]; 400 μg on 5 mm disc): 6.0 ± 1.0 mm
Growth inhibition zone ([5]; 600 μg on 5 mm disc): 6.0 ± 1.0 mm
Growth inhibition zone ([5]; 800 μg on 5 mm disc): 6.0 ± 1.0 mm
Growth inhibition zone ([6]; 200 μg on 5 mm disc): 6.3 ± 1.5 mm
Growth inhibition zone ([6]; 400 μg on 5 mm disc): 6.7 ± 1.2 mm
Growth inhibition zone ([6]; 600 μg on 5 mm disc): 8.3 ± 0.6 mm
Growth inhibition zone ([6]; 800 μg on 5 mm disc): 3.3 ± 1.7 mm
Growth inhibition zone ([7]; 200 μg on 5 mm disc): 5.0 ± 1.0 mm
Growth inhibition zone ([7]; 400 μg on 5 mm disc): 8.0 ± 0.7 mm
Growth inhibition zone ([7]; 600 μg on 5 mm disc): 9.0 ± 1.0 mm
Growth inhibition zone ([7]; 800 μg on 5 mm disc): 11.0 ± 1.2 mm
Growth inhibition zone ([8]; 200 μg on 5 mm disc): 6.0 ± 1.0 mm
Growth inhibition zone ([8]; 400 μg on 5 mm disc): 6.0 ± 1.0 mm
Growth inhibition zone ([8]; 600 μg on 5 mm disc): 6.0 ± 1.0 mm
Growth inhibition zone ([8]; 800 μg on 5 mm disc): 6.0 ± 1.0 mm
Growth inhibition zone ([9]; 200 μg on 5 mm disc): 7.3 ± 1.5 mm
Growth inhibition zone ([9]; 400 μg on 5 mm disc): 3.7 ± 1.5 mm
Growth inhibition zone ([9]; 600 μg on 5 mm disc): 9.7 ± 0.6 mm
Growth inhibition zone ([9]; 800 μg on 5 mm disc): 9.7 ± 1.5 mm
Growth inhibition zone ([10]; 200 μg on 5 mm disc): 12.0 ± 0.6 mm
Growth inhibition zone ([10]; 400 μg on 5 mm disc): 14.3 ± 0.6 mm
Growth inhibition zone ([10]; 600 μg on 5 mm disc): 13.7 ± 1.5 mm
Growth inhibition zone ([10]; 800 μg on 5 mm disc): 14.6 ± 0.6 mm
Growth inhibition zone ([11]; 200 μg on 5 mm disc): 7.3 ± 0.6 mm
Growth inhibition zone ([11]; 400 μg on 5 mm disc): 8.7 ± 0.6 mm
Growth inhibition zone ([11]; 600 μg on 5 mm disc): 9.7 ± 0.6 mm
Growth inhibition zone ([11]; 800 μg on 5 mm disc): 10.0 mm
Growth inhibition zone ([12]; 200 μg on 5 mm disc): 11.7 ± 0.6 mm
Growth inhibition zone ([12]; 400 μg on 5 mm disc): 15.7 ± 0.6 mm
Growth inhibition zone ([12]; 600 μg on 5 mm disc): 17.0 ± 1.0 mm
Growth inhibition zone ([12]; 800 μg on 5 mm disc): 19.7 ± 0.6 mm

O=P([O-])([O-])[O-].[Cu+2].[Cu+2].[OH-] [Copper hydroxyphosphate compound (II), copper hydroxyphosphate (II)]
Growth inhibition zone ([1]; 200 μg on 5 mm disc): 5.0 mm
Growth inhibition zone ([1]; 400 μg on 5 mm disc): 5.0 mm
Growth inhibition zone ([1]; 600 μg on 5 mm disc): 5.0 mm
Growth inhibition zone ([1]; 800 μg on 5 mm disc): 8.6 ± 0.6 mm
Growth inhibition zone ([2]; 200 μg on 5 mm disc): 5.0 mm
Growth inhibition zone ([2]; 400 μg on 5 mm disc): 5.0 mm
Growth inhibition zone ([2]; 600 μg on 5 mm disc): 5.0 mm
Growth inhibition zone ([2]; 800 μg on 5 mm disc): 5.0 mm
Growth inhibition zone ([3]; 200 μg on 5 mm disc): 5.0 mm
Growth inhibition zone ([3]; 400 μg on 5 mm disc): 5.0 mm
Growth inhibition zone ([3]; 600 μg on 5 mm disc): 5.0 mm
Growth inhibition zone ([3]; 800 μg on 5 mm disc): 5.0 mm
Growth inhibition zone ([4]; 200 μg on 5 mm disc): 5.0 mm
Growth inhibition zone ([4]; 400 μg on 5 mm disc): 5.0 mm
Growth inhibition zone ([4]; 600 μg on 5 mm disc): 5.0 mm
Growth inhibition zone ([4]; 800 μg on 5 mm disc): 5.0 mm
Growth inhibition zone ([5]; 200 μg on 5 mm disc): 5.0 mm
Growth inhibition zone ([5]; 400 μg on 5 mm disc): 5.0 mm
Growth inhibition zone ([5]; 600 μg on 5 mm disc): 5.0 mm
Growth inhibition zone ([5]; 800 μg on 5 mm disc): 5.0 mm
Growth inhibition zone ([6]; 200 μg on 5 mm disc): 5.0 mm
Growth inhibition zone ([6]; 400 μg on 5 mm disc): 5.0 mm
Growth inhibition zone ([6]; 600 μg on 5 mm disc): 5.0 mm
Growth inhibition zone ([6]; 800 μg on 5 mm disc): 5.0 mm
Growth inhibition zone ([7]; 200 μg on 5 mm disc): 5.0 mm
Growth inhibition zone ([7]; 400 μg on 5 mm disc): 5.0 mm
Growth inhibition zone ([7]; 600 μg on 5 mm disc): 5.0 mm
Growth inhibition zone ([7]; 800 μg on 5 mm disc): 5.0 mm
Growth inhibition zone ([8]; 200 μg on 5 mm disc): 5.0 mm
Growth inhibition zone ([8]; 400 μg on 5 mm disc): 5.0 mm
Growth inhibition zone ([8]; 600 μg on 5 mm disc): 5.0 mm
Growth inhibition zone ([8]; 800 μg on 5 mm disc): 5.0 mm
Growth inhibition zone ([9]; 200 μg on 5 mm disc): 5.0 mm
Growth inhibition zone ([9]; 400 μg on 5 mm disc): 5.0 mm
Growth inhibition zone ([9]; 600 μg on 5 mm disc): 5.0 mm
Growth inhibition zone ([9]; 800 μg on 5 mm disc): 5.0 mm
Growth inhibition zone ([10]; 200 μg on 5 mm disc): 5.0 mm
Growth inhibition zone ([10]; 400 μg on 5 mm disc): 5.0 mm
Growth inhibition zone ([10]; 600 μg on 5 mm disc): 5.6 ± 0.5 mm
Growth inhibition zone ([10]; 800 μg on 5 mm disc): 6.3 ± 1.1 mm
Growth inhibition zone ([11]; 200 μg on 5 mm disc): 5.0 mm
Growth inhibition zone ([11]; 400 μg on 5 mm disc): 5.0 mm
Growth inhibition zone ([11]; 600 μg on 5 mm disc): 5.0 mm
Growth inhibition zone ([11]; 800 μg on 5 mm disc): 5.0 mm
Growth inhibition zone ([12]; 200 μg on 5 mm disc): 5.0 mm
Growth inhibition zone ([12]; 400 μg on 5 mm disc): 8.6 ± 0.6 mm
Growth inhibition zone ([12]; 600 μg on 5 mm disc): 7.3 ± 2 mm
Growth inhibition zone ([12]; 800 μg on 5 mm disc): 7.6 ± 2.3 mm
